The values below come from US11858941B2, “Heterocyclic and heteroaryl compounds for treating Huntington's disease” (PTC THERAPEUTICS, INC., priority 2018, dated 2024).

Molecules are shown by their SMILES.

This test relates to Endogenous Huntingtin Protein. As to the kind of experiment: Endogenous Huntingtin Protein Assay (Meso Scale Discovery ELISA-based electrochemiluminescence). As to conditions: MSD plates coated with MW1 (expanded polyglutamine) or MAB2166 capture antibody; lysates. The class given is cell-based. The method in brief:
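MSD electrochemiluminescence sandwich ELISA: MW1 (expanded polyQ) or MAB2166 capture antibody at 1 μg/mL, samples incubated overnight at 4° C. Detection with rabbit monoclonal #5656S then SULFO-TAG anti-rabbit antibody, each 0.25 μg/mL for 1 h at room temperature.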
By IC50 is commonly meant the point on the concentration scale where inhibition reaches its midpoint. `CC1(C)CC(n2nnc3cc(-c4ccc(-c5cn6ccnc6cn5)cc4O)nnc32)CC(C)(C)N1` [Cpd 142, 5-(imidazo[1,2-a]pyrazin-6-yl)-2-[3-(2,2,6,6-tetramethylpiperidin-4-yl)-3H-[1,2,3]triazolo[4,5-c]pyridazin-6-yl]phenol] came in with an IC50 of at most 100 nM.

With `CC1(C)C[C@H](n2nnc3cc(-c4ccc(-c5c[nH]nc5F)cc4O)nnc32)[C@H](F)C(C)(C)N1` [Cpd 173, 5-(3-fluoro-1H-pyrazol-4-yl)-2-{3-[(3S,4S)-3-fluoro-2,2,6,6-tetramethylpiperidin-4-yl]-3H-[1,2,3]triazolo[4,5-c]pyridazin-6-yl}phenol], the IC50 is at most 100 nM.

With `COc1ncnc(-c2ccc(-c3cc4nnn(C5CC(C)(C)NC(C)(C)C5)c4nn3)c(O)c2)n1` [Cpd 159, 5-(4-methoxy-1,3,5-triazin-2-yl)-2-(3-(2,2,6,6-tetramethylpiperidin-4-yl)-3H-[1,2,3]triazolo[4,5-c]pyridazin-6-yl)phenol], the IC50 was at most 100 nM.

Regarding `CC1(C)CC(n2nnc3cc(-c4ccc(-c5cn[nH]c5)cc4O)nnc32)CCN1` (centres unmarked) [Cpd 56, 2-[3-(2,2-dimethylpiperidin-4-yl)-3H-[1,2,3]triazolo[4,5-c]pyridazin-6-yl]-5-(1H-pyrazol-4-yl)phenol], the IC50 lay within 100 to 500 nM.

Turning to `CC1(C)CC(n2nnc3cc(-c4ccc(-c5ccoc5)cc4O)nnc32)CC(C)(C)N1` [Cpd 95, 5-(furan-3-yl)-2-[3-(2,2,6,6-tetramethylpiperidin-4-yl)-3H-[1,2,3]triazolo[4,5-c]pyridazin-6-yl]phenol], the IC50 lay in the range of 100 to 500 nM.

As for `CC1(C)CC(n2nnc3cc(-c4ccc(-c5cc6nn[nH]c6cn5)cc4O)nnc32)CC(C)(C)N1` [Cpd 146, 2-[3-(2,2,6,6-tetramethylpiperidin-4-yl)-3H-[1,2,3]triazolo[4,5-c]pyridazin-6-yl]-5-(3H-[1,2,3]triazolo[4,5-c]pyridin-6-yl)phenol], the IC50 was 1000 to 3000 nM.

For `CC1(C)CC(n2nnc3cc(-c4ccc(-n5ccnn5)cc4O)nnc32)CC(C)(C)N1` [Cpd 72, 2-[3-(2,2,6,6-tetramethylpiperidin-4-yl)-3H-[1,2,3]triazolo[4,5-c]pyridazin-6-yl]-5-(1H-1,2,3-triazol-1-yl)phenol], the IC50 was 100 to 500 nM.

On to `CC1(C)CC(n2nnc3cc(-c4ccc(-c5cccnc5)cc4O)nnc32)CC(C)(C)N1` [Cpd 65, 5-(pyridin-3-yl)-2-[3-(2,2,6,6-tetramethylpiperidin-4-yl)-3H-[1,2,3]triazolo[4,5-c]pyridazin-6-yl]phenol], for which the IC50 was in the range of 500 to 1000 nM.

`COc1nc2cc(-c3ccc(-c4cn[nH]c4)cc3O)nnc2n1C1CC(C)(C)NC(C)(C)C1` [Cpd 40, 2-[6-methoxy-7-(2,2,6,6-tetramethylpiperidin-4-yl)-7H-imidazo[4,5-c]pyridazin-3-yl]-5-(1H-pyrazol-4-yl)phenol] registered an IC50 of 3000 to 9000 nM.

In turn, `CC1(C)CC(n2ncc3cc(-c4ccc(-c5cccnc5)cc4O)nnc32)CC(C)(C)N1` [Cpd 166, 5-(pyridin-3-yl)-2-[1-(2,2,6,6-tetramethylpiperidin-4-yl)-1H-pyrazolo[3,4-c]pyridazin-5-yl]phenol] had an IC50 of 100 to 500 nM.

`CC1(C)CC(n2nnc3cc(-c4ccc(-c5cc[nH]c5)cc4O)nnc32)CC(C)(C)N1` [Cpd 80, 5-(1H-pyrrol-3-yl)-2-[3-(2,2,6,6-tetramethylpiperidin-4-yl)-3H-[1,2,3]triazolo[4,5-c]pyridazin-6-yl]phenol]: the IC50 fell in the range of 100 to 500 nM.

Regarding `CC1(C)CC(n2nnc3cc(-c4ccc(-c5ccncn5)cc4O)nnc32)CC(C)(C)N1` [Cpd 75, 5-(pyrimidin-4-yl)-2-[3-(2,2,6,6-tetramethylpiperidin-4-yl)-3H-[1,2,3]triazolo[4,5-c]pyridazin-6-yl]phenol], the IC50 was in the range of 100 to 500 nM.

As for `CC1(C)CC(n2nnc3cc(-c4ccc(-c5cnc6nn[nH]c6c5)cc4O)nnc32)CC(C)(C)N1` [Cpd 145, 2-[3-(2,2,6,6-tetramethylpiperidin-4-yl)-3H-[1,2,3]triazolo[4,5-c]pyridazin-6-yl]-5-(1H-[1,2,3]triazolo[4,5-b]pyridin-6-yl)phenol], the IC50 was in the range of 1000 to 3000 nM.

`Oc1cc(-c2cn[nH]c2)ccc1-c1cc2[nH]cc(C3CC4CCC(C3)N4)c2nn1` (centres unmarked) [Cpd 29, 2-[7-(8-azabicyclo[3.2.1]oct-3-yl)-5H-pyrrolo[3,2-c]pyridazin-3-yl]-5-(1H-pyrazol-4-yl)phenol] showed an IC50 of at most 100 nM.

`CC1(C)C[C@H](n2nnc3cc(-c4ccc(-c5cn[nH]c5)cc4O)nnc32)[C@H](F)C(C)(C)N1` [Cpd 164, 2-{3-[(3S,4S)-3-fluoro-2,2,6,6-tetramethylpiperidin-4-yl]-3H-[1,2,3]triazolo[4,5-c]pyridazin-6-yl}-5-(1H-pyrazol-4-yl)phenol] yielded an IC50 of at most 100 nM.

`CC1(C)CC(n2nnc3cc(-c4ccc(-c5ccncc5F)cc4O)nnc32)CC(C)(C)N1` [Cpd 101, 5-(3-fluoropyridin-4-yl)-2-[3-(2,2,6,6-tetramethylpiperidin-4-yl)-3H-[1,2,3]triazolo[4,5-c]pyridazin-6-yl]phenol]: the half-maximal inhibitory concentration (IC50) lay within 500 to 1000 nM.

In turn, `Oc1cc(-c2cn[nH]c2)ccc1-c1cc2[nH]cc(C3CCNCC3)c2nn1` [Cpd 12, 2-[7-(piperidin-4-yl)-5H-pyrrolo[3,2-c]pyridazin-3-yl]-5-(1H-pyrazol-4-yl)phenol] showed an IC50 of 100 to 500 nM.

The compound `CC1(C)CC(n2nnc3cc(-c4ccc(-c5cnoc5)cc4O)nnc32)CC(C)(C)N1` [Cpd 120, 5-(1,2-oxazol-4-yl)-2-[3-(2,2,6,6-tetramethylpiperidin-4-yl)-3H-[1,2,3]triazolo[4,5-c]pyridazin-6-yl]phenol] yielded an IC50 of 100 to 500 nM.

Compound `Cc1ccn(-c2ccc(-c3cc4nnn(C5CC(C)(C)NC(C)(C)C5)c4nn3)c(O)c2)n1` [Cpd 157, 5-(3-methyl-1H-pyrazol-1-yl)-2-(3-(2,2,6,6-tetramethylpiperidin-4-yl)-3H-[1,2,3]triazolo[4,5-c]pyridazin-6-yl)phenol] gave an IC50 of 100 to 500 nM.

In turn, `CC1(C)CC(n2nnc3cc(-c4cc5cccnc5cc4O)nnc32)CC(C)(C)N1` [Cpd 81, 6-[3-(2,2,6,6-tetramethylpiperidin-4-yl)-3H-[1,2,3]triazolo[4,5-c]pyridazin-6-yl]quinolin-7-ol] registered an IC50 of 1000 to 3000 nM.

`CC1(C)CC(n2nnc3cc(-c4ccc(-c5ccn6ccnc6c5)cc4O)nnc32)CC(C)(C)N1` [Cpd 90, 5-(imidazo[1,2-a]pyridin-7-yl)-2-[3-(2,2,6,6-tetramethylpiperidin-4-yl)-3H-[1,2,3]triazolo[4,5-c]pyridazin-6-yl]phenol]: the IC50 is 100 to 500 nM.

Compound `CC1(C)CC(n2nnc3cc(-c4ccc(-c5ccc(OC(F)F)cn5)cc4O)nnc32)CC(C)(C)N1` [Cpd 103, 5-[5-(difluoromethoxy)pyridin-2-yl]-2-[3-(2,2,6,6-tetramethylpiperidin-4-yl)-3H-[1,2,3]triazolo[4,5-c]pyridazin-6-yl]phenol] showed an IC50 of 100 to 500 nM.

Turning to `CC1(C)CC(n2nnc3cc(-c4ccc(-c5ccc6nccn6n5)cc4O)nnc32)CC(C)(C)N1` [Cpd 162, 5-(imidazo[1,2-b]pyridazin-6-yl)-2-(3-(2,2,6,6-tetramethylpiperidin-4-yl)-3H-[1,2,3]triazolo[4,5-c]pyridazin-6-yl)phenol], the IC50 is at most 100 nM.
